Assay results taken from patent EP0996337B1, “A PROCESS OF DELIVERING A POLY[…] THE VASCULAR SYSTEM” (Mirus Bio Corporation, priority 1997, dated 1998).

Test: Serum ALT and GGT after injections in mice
Format: in vivo
Conditions: positive control, one day after intraperitoneal injection of 40 µl of 50% in mineral oil, n=4
Procedure: Blood obtained from the retro-orbit sinus was analyzed for serum concentration of hGH using the RIA, HGH-TGES 100T kit from Nichols Institute (San Juan Capistrano, CA). Serum ALT and GGT levels were done using EKTACHEM DT slides and a KODAK EKTACHEM DT 60 ANALYZER as recommended by the manufacturer (Kodak. Rochester, NY)
Similar results were also obtained when bile ducts were injected with 100 µg of pCILuc in 1 ml of 15% mannitol and 2.5 units heparin/ml in normal saline solution. A mean total luciferase protein/liver of 15.39 µg/liver (Fig. 1A. BD+CL) was obtained when the hepatic vein was clamped as compared to a mean total luciferase protein/liver of 1.33 µg/liver (Fig 1A. BD-CL) without occluding the hepatic vein If mannitol was omitted then the bile duct injections without clamping any blood vessels yielded approximately 15-fold less luciferase (0 086 µg/liver ± 0.06, n = 25). […] Serum ALT and GGT assays were performed on mice one and eight days after each of the above injections with pCILuc (4 mice for each condition). No increases in […] were observed after any of the injections including the bile duct injections. Serum ALT levels increased to 200-400 U/L one day after portal vein and bile duct injections. One day after IVC injections serum ALT levels increased to ∼1500 U/L in half of the mice but was only ∼250 U/L in the other half. […]

ClC(Cl)(Cl)Cl [carbon tetrachloride]
Serum ALT, average: 25,900 U/L
